Measurements taken from patent US20240060047A1, “CELLS WITH SUSTAINED TRANSGENE EXPRESSION” (BlueRock Therapeutics LP, priority 2019, published 2024).

Columns and labels:
[1] = system: GAPDH-targeted RapaCasp9 PSC line; assay: Flow cytometric analysis of cleaved Caspase 3 after rapamycin treatment; assay type: cell-based, human; conditions: 5nM or 10 nM rapamycin, 24 hours of treatment
Procedure: A GAPDH-targeted RapaCasp9 PSC line was treated with either 5nM or 10 nM of rapamycin for 1, 2, 4 or 24 hours, and cells were harvested for flow cytometric analysis after each timepoint (FIG. 17). The primary antibody used was an anti-human/mouse cleaved caspase-3 conjugated to an Alexa Fluor® 488 […]. The primary antibody detects human and mouse Caspase 3 cleaved at Asp175. Caspase 3 is an executioner caspase that functions downstream of the initiator caspase, Caspase 9, in the apoptotic cascade. […] Upon induction of apoptosis through either cell stress or activation, it undergoes proteolysis into cleaved Caspase 3 subunits. […] There was negligible detection of cleaved Caspase 3 for edited PSCs not treated with rapamycin.

[2] = system: GAPDH locus; assay: gRNA cutting efficiency by ICE analysis, GAPDH locus; assay type: cell-based; conditions: RNP with Cas9 nucleofected into human PSCs, gDNA at 72 hours
Procedure: (§1) CRISPR-Cas9 gene editing was performed to insert transgenes into the intended STEL sites in the following experiments. Three guide RNAs (gRNAs) were designed computationally to target the 3′ UTR of GAPDH proximal to the stop codon. Five gRNAs were designed computationally to target the 3′ UTR of RPL13A proximal to the stop codon. These gRNAs were designed to have a low number of off-target sites and have a high predicted activity against the target sequence.
(§2) To test gRNA cutting efficiency, gRNAs complexed with Cas9 nuclease were delivered as ribonucleoproteins (RNPs) separately into human PSCs via nucleofection. At 72 hours following nucleofection, gDNA was extracted from each pool of nucleofected cells. A region around the GAPDH or RPL13A locus intended cut site was PCR-amplified using the following primers: […]
(§3) Overall cutting efficiency of each gRNA was determined by Inference of CRISPR Edits (ICE) Analysis by comparing a Sanger sequencing chromatogram from unedited cells to the Sanger sequencing chromatogram from each gRNA condition.

[3] = system: RPL13A locus; assay: gRNA cutting efficiency by ICE analysis, RPL13A locus; assay type: cell-based; conditions: RNP with Cas9 nucleofected into human PSCs, gDNA at 72 hours
Procedure: as §1, §2, §3

`CO[C@H]1C[C@@H]2CC[C@@H](C)[C@@](O)(O2)C(=O)C(=O)N2CCCC[C@H]2C(=O)O[C@H]([C@H](C)C[C@@H]2CC[C@@H](O)[C@H](OC)C2)CC(=O)[C@H](C)/C=C(\C)[C@@H](O)[C@@H](OC)C(=O)[C@H](C)C[C@H](C)/C=C/C=C/C=C/1C` [rapamycin] was tested, and the “cells staining for cleaved Caspase 3” value [1] was > 99%.

For “5′-CUUCCUCUUGUGCUCUUGCU-3′ (SEQ ID NO:7) (listed as RNA, chemistry not given here) [GAPDH gRNA, guide RNA targeting the 3′ UTR of GAPDH proximal to the stop codon]”, the relative cutting efficiency [2] was “highest relative cutting efficiencies”.

For “5′-GGAAGGGCAGGCAACGCAUG-3′ (SEQ ID NO:8) (listed as RNA, chemistry not given here) [RPL13A gRNA, guide RNA targeting the 3′ UTR of RPL13A proximal to the stop codon]”, the relative cutting efficiency [3] was “highest relative cutting efficiencies”.
